# Assay results taken from paper PMC7864068, “α2-Macroglobulin-like protein 1 can conjugate and inhibit proteases through their hydroxyl groups, because of an enhanced reactivity of its thiol ester” (The Journal of Biological Chemistry, 2021).
# Where a chain is given by its changes, count along the chain named.
# Experiments:
# Assay in all cases: LC-MS/MS PRM of the pepsin-digested thiol ester peptide conjugate
# Format in all cases: biochemical
# [1] = molecular target: T1, A2ML1 (α2-macroglobulin-like protein 1) (Homo sapiens, UniProt A8K2U0); conditions: A2ML1 activated by chymotrypsin, HBS pH 7.4, 37 °C
# T1 construct: full-length recombinant, secreted by HEK293 Freestyle cells, no tag mentioned, purified by Zn IMAC, anion exchange and size exclusion; monomer; bait region cleaved by chymotrypsin in the assay
# T1 sequence (A8K2U0 18-1454): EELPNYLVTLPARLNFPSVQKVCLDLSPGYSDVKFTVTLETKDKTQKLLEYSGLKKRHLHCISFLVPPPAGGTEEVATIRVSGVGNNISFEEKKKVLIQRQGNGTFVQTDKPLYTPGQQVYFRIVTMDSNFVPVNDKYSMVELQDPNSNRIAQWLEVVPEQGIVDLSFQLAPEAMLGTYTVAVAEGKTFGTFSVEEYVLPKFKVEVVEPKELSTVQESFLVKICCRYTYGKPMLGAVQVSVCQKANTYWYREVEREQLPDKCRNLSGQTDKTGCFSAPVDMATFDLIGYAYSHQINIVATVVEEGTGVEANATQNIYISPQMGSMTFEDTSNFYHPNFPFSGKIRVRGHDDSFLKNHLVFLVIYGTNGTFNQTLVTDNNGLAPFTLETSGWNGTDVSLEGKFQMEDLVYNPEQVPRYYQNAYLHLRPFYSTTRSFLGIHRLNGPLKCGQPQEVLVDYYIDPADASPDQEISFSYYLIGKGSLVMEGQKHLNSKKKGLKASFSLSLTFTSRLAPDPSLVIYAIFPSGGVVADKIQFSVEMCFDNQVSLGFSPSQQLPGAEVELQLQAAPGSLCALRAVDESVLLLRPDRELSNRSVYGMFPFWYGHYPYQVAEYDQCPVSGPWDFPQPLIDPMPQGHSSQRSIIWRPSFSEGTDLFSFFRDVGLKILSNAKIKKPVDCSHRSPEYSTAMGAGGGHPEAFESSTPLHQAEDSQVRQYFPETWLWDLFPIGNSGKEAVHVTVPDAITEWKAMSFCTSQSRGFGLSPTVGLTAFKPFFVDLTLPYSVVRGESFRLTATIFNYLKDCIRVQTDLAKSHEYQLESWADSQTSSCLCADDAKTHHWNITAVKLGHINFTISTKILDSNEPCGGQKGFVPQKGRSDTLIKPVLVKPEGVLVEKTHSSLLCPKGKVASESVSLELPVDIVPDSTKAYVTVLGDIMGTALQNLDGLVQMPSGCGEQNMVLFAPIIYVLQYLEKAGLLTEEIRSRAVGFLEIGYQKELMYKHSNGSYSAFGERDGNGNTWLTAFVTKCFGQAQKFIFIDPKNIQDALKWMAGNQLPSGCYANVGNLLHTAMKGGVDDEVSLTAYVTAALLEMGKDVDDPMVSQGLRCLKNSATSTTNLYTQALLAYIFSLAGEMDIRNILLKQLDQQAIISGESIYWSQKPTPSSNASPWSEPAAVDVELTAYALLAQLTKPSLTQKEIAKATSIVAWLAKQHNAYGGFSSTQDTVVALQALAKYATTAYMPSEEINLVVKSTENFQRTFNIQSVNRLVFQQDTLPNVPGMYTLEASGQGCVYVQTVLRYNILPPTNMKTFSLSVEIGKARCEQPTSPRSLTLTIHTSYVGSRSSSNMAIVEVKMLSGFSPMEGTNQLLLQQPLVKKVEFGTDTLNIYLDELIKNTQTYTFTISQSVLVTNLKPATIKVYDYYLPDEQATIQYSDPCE
# A2M (α2-macroglobulin) [2] = molecular target: T2, A2M (α2-macroglobulin) (Homo sapiens, UniProt P01023); conditions: covalent amide at thiol ester Gln-975; plasma-purified A2M activated by chymotrypsin; 200 mM glycine, HBS pH 7.4, 37 °C
# T2 construct: WT purified from plasma; N1088H recombinant from HEK293 cells (gene based on mRNA M11311), native form enriched by LRP1 depletion; tetramer; cleaved by chymotrypsin in the assay
# T2 sequence (P01023 24-1474): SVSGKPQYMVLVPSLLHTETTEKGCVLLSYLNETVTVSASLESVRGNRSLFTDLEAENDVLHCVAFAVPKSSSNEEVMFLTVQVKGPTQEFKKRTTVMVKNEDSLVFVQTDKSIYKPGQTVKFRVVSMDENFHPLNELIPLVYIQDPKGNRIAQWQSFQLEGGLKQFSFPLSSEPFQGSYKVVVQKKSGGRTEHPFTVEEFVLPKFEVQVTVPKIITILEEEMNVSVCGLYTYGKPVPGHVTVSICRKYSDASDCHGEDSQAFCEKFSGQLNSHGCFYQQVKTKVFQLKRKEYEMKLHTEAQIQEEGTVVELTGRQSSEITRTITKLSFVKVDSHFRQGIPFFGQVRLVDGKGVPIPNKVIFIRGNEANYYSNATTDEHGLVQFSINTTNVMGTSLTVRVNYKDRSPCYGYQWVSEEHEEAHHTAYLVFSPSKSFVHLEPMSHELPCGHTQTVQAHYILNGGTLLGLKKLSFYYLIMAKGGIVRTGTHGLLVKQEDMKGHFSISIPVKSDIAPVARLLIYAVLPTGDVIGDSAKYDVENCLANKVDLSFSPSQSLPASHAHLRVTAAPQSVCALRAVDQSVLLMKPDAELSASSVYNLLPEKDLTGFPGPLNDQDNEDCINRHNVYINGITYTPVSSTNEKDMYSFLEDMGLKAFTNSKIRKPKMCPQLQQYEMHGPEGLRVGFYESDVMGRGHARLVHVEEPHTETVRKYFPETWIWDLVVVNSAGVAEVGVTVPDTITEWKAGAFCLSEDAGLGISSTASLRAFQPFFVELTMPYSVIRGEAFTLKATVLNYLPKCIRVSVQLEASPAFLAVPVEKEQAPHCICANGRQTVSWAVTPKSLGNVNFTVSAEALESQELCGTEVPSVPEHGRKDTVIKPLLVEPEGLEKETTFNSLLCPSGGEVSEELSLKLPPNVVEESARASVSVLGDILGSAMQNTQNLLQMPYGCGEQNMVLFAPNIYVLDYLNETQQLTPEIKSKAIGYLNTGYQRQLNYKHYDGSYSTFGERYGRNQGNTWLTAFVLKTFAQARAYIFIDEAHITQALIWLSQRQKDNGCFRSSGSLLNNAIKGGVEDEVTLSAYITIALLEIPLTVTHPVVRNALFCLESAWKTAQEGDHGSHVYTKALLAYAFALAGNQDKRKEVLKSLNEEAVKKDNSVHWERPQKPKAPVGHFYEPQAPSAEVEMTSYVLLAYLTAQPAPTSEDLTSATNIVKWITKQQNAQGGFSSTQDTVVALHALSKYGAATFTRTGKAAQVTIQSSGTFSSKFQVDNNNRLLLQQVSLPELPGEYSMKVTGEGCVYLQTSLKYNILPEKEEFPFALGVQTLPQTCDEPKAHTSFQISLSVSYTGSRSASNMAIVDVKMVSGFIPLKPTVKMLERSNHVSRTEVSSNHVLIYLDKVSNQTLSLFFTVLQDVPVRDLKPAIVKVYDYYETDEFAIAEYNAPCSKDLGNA
# A2M (α2-macroglobulin) [3] = molecular target: T3, A2M (α2-macroglobulin) (Homo sapiens, UniProt P01023, N1088H); conditions: covalent ester at thiol ester Gln-975; recombinant A2M activated by chymotrypsin; 200 mM glycerol, HBS pH 7.4, 37 °C
# T3 construct: WT purified from plasma; N1088H recombinant from HEK293 cells (gene based on mRNA M11311), native form enriched by LRP1 depletion; tetramer; cleaved by chymotrypsin in the assay
# T3 sequence (P01023 24-1474 N1088H): T2 sequence (P01023 24-1474) with N1065H
LC-MS/MS PRM of the pepsin-digested thiol ester peptide conjugate (A2M (α2-macroglobulin) [2]),SMILES,"LC-MS/MS PRM of the pepsin-digested thiol ester peptide conjugate ([1]; covalent amide at thiol ester Gln-973, 200 mM glycine)",LC-MS/MS PRM of the pepsin-digested thiol ester peptide conjugate (A2M (α2-macroglobulin) [3]),"LC-MS/MS PRM of the pepsin-digested thiol ester peptide conjugate ([1]; covalent ester at thiol ester Gln-973, 200 mM glycerol)"
both A2Ms were able to conjugate glycine,NCC(=O)O [glycine],both WT and H1084N A2ML1s reacted with the amine substrate glycine,,
,OCC(O)CO [glycerol],,reaction products between the thiol ester and glycerol was detected for A2M N1088H,the reaction product with the hydroxyl substrate glycerol was only detected for WT A2ML1
